# Counter-ions that a name gives are not always drawn. Like-named read-outs stand apart in the source and are kept apart here.
# What was measured:
# Assay in all cases: Post-emergence efficacy, glasshouse spray test
# Type in all cases: in vivo
# [1] = test system: Euphorbia heterophylla (EPHHL); details: 312 h, read-out: Control of weed species EPHHL after post-emergence application (100=total damage to plant; 0=no damage to plant)
# Experimental: (§1) Seeds of a variety of test species were sown in standard soil in pots. After cultivation for 14 days (post-emergence) under controlled conditions in a glasshouse (at 24/16° C., day/night; 14 hours light; 65% humidity), the plants were sprayed with an aqueous spray solution derived from the dissolution of the technical active ingredient formula (I) in a small amount of acetone and a special solvent and emulsifier mixture referred to as IF50 (11.12% Emulsogen EL360 TM+44.44% N-methylpyrrolidone+44.44% Dowanol DPM glycol ether), to create a 50 g/l solution which was then diluted to required concentration using 0.25% or 1% Empicol ESC70 (Sodium lauryl ether sulphate)+1% ammonium sulphate as diluent.
# (§2) The test plants were then grown in a glasshouse under controlled conditions (at 24/16° C., day/night; 14 hours light; 65% humidity) and watered twice daily. After 13 days the test was evaluated (100=total damage to plant; 0=no damage to plant).
# (§3) Ipomoea hederacea (IPOHE), Euphorbia heterophylla (EPHHL), Chenopodium album (CHEAL), Amaranthus palmeri (AMAPA), Lolium perenne (LOLPE), Digitaria sanguinalis (DIGSA), Eleusine indica (ELEIN), Echinochloa crus-galli (ECHCG), Setaria faberi (SETFA)
# [2] = test system: Digitaria sanguinalis (DIGSA); details: 312 h, read-out: Control of weed species DIGSA after post-emergence application (100=total damage to plant; 0=no damage to plant)
# Experimental: as §1, §2, §3
# [3] = test system: Echinochloa crus-galli (ECHCG); details: 312 h, read-out: Control of weed species ECHCG after post-emergence application (100=total damage to plant; 0=no damage to plant)
# Experimental: as §1, §2, §3
# Eleusine indica (ELEIN) = details: 312 h, read-out: Control of weed species ELEIN after post-emergence application (100=total damage to plant; 0=no damage to plant)
# Experimental: as §1, §2, §3
# [4] = test system: Chenopodium album (CHEAL); details: 312 h, read-out: Control of weed species CHEAL after post-emergence application (100=total damage to plant; 0=no damage to plant)
# Experimental: as §1, §2, §3
# [5] = test system: Ipomoea hederacea (IPOHE); details: 312 h, read-out: Control of weed species IPOHE after post-emergence application (100=total damage to plant; 0=no damage to plant)
# Experimental: as §1, §2, §3
# Lolium perenne (LOLPE) = details: 312 h, read-out: Control of weed species LOLPE after post-emergence application (100=total damage to plant; 0=no damage to plant)
# Experimental: as §1, §2, §3
# [6] = test system: Amaranthus palmeri (AMAPA); details: 312 h, read-out: Control of weed species AMAPA after post-emergence application (100=total damage to plant; 0=no damage to plant)
# Experimental: as §1, §2, §3
# Setaria faberi (SETFA) = details: 312 h, read-out: Control of weed species SETFA after post-emergence application (100=total damage to plant; 0=no damage to plant)
# Experimental: as §1, §2, §3
# [7] = 500 g/Ha, evaluated after 13 days
# [8] = 130 g/Ha, evaluated after 13 days
Compound,"pest or weed control at 500 g/ha [1, 7] [%]","pest or weed control at 500 g/ha [2, 7] [%]","pest or weed control at 500 g/ha [3, 7] [%]",pest or weed control at 500 g/ha (Eleusine indica (ELEIN); [7]) [%],"pest or weed control at 500 g/ha [4, 7] [%]","pest or weed control at 500 g/ha [5, 7] [%]",pest or weed control at 500 g/ha (Lolium perenne (LOLPE); [7]) [%],"pest or weed control at 500 g/ha [6, 7] [%]",pest or weed control at 500 g/ha (Setaria faberi (SETFA); [7]) [%],also measured
"O=C1NC(=O)C(CC[n+]2ccc(-c3ncccn3)cn2)S1 (stereo not drawn) [Compound A1, 5-[2-(4-pyrimidin-2-ylpyridazin-1-ium-1-yl)ethyl]thiazolidine-2,4-dione trifluoroacetate]",,,,,,,,,,pest or weed control at 500 g/ha [1]: 50%; pest or weed control at 500 g/ha [2]: 60%; pest or weed control at 500 g/ha [3]: 50%; pest or weed control at 500 g/ha (Eleusine indica (ELEIN)): 70%; pest or weed control at 500 g/ha [4]: 30%; pest or weed control at 500 g/ha [5]: 50%; pest or weed control at 500 g/ha (Lolium perenne (LOLPE)): 40%; pest or weed control at 500 g/ha [6]: 90%; pest or weed control at 500 g/ha (Setaria faberi (SETFA)): 60%
"Cc1cc(O)c(C(=O)C[n+]2ccc(-c3ncccn3)cn2)c(=O)o1 [Compound A2, 4-hydroxy-6-methyl-3-[2-(4-pyrimidin-2-ylpyridazin-1-ium-1-yl)acetyl]pyran-2-one trifluoroacetate]",70,30,20,70,0,10,10,90,20,
Cc1nnc(NC(=O)C[n+]2ccc(-c3ncccn3)cn2)s1 [Compound A3],,0,10,0,30,,0,50,0,
O=C(C[n+]1ccc(-c2ncccn2)cn1)Nc1nccs1 [Compound A4],100,10,0,80,60,10,0,70,20,
O=C(C[n+]1ccc(-c2ncccn2)cn1)Nc1nncs1 [Compound A5],20,70,50,70,30,20,0,100,20,
Cn1nnnc1NC(=O)C[n+]1ccc(-c2ncccn2)cn1 [Compound A6],80,30,30,20,90,40,0,90,30,
O=C(C[n+]1ccc(-c2ncccn2)cn1)Nc1nnn[n-]1 [Compound A7],30,30,20,30,90,30,10,90,50,
"O=S(=O)(CC[n+]1ccc(-c2ncccn2)cn1)c1cnn[nH]1 [Compound A8, 4-pyrimidin-2-yl-1-[2-(1H-triazol-5-ylsulfonyl)ethyl]pyridazin-1-ium 2,2,2-trifluoroacetate]",,,,,,,,,,"pest or weed control at 130 g/ha [1, 8]: 70%; pest or weed control at 130 g/ha [3, 8]: 40%; pest or weed control at 130 g/ha (Eleusine indica (ELEIN); [8]): 50%; pest or weed control at 130 g/ha [4, 8]: 0%; pest or weed control at 130 g/ha [5, 8]: 20%; pest or weed control at 130 g/ha (Lolium perenne (LOLPE); [8]): 0%; pest or weed control at 130 g/ha [6, 8]: 60%; pest or weed control at 130 g/ha (Setaria faberi (SETFA); [8]): 50%"
"Oc1cc(C[n+]2ccc(-c3ncccn3)cn2)on1 [Compound A9, 5-[(4-pyrimidin-2-ylpyridazin-1-ium-1-yl)methyl]isoxazol-3-ol 2,2,2-trifluoroacetate]",30,40,30,20,40,20,10,20,20,
